Where a SMILES comes first, the peptide text is derived from it. Bridges are numbered along the chain shown (N, C = ends). [ ]: non-standard residue; d: D form. Orn = NCCC[C@H](N)C(=O)O; Mpa = O=C(O)CCS
Columns and labels:
Conditions in all cases: Compound Concentration 10.0 uM, Hit No
[1] = target: Uracil-DNA glycosylase (Homo sapiens) (UniProt P13051);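 further: UNG excision on a quenched double-stranded DNA oligo probe, with APE1 added for strand incision and turnover, read as fluorescence at 594 nm as strands separate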
Description: Inhibition of UNG by quantifying inhibition of UNG-mediated cleavage and dissociation of quenched duplex DNA oligonucleotides, measured as fluorescence at 594 nm. To generate a functional strand incision and increase turn-over this assay is coupled to APE1.

[2] = target: T1, Endonuclease 8-like 2 (Homo sapiens) (UniProt Q969S2);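 further: fluorescence at 594 nm reports NEIL2 cutting and release of a quenched double-stranded DNA oligo substrate, reduced signal read as inhibition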
T1 sequence (whole entry): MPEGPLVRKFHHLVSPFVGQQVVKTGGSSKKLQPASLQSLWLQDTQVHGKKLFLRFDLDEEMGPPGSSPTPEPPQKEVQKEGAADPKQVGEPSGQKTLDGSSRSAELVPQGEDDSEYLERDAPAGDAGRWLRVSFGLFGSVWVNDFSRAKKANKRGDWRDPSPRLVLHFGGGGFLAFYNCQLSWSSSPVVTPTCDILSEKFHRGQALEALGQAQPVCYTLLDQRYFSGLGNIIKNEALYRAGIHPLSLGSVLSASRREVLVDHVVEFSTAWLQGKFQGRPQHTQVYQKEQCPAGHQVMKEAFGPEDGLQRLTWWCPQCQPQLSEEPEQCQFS
Description: Inhibition of NEIL2 by quantifying inhibition of NEIL2-mediated cleavage and dissociation of quenched duplex DNA oligonucleotides, measured as fluorescence at 594 nm.

[3] = target: Endonuclease 8-like 1 (Homo sapiens) (UniProt Q96FI4);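 further: fluorescence at 594 nm from quenched duplex DNA oligonucleotides released by NEIL1 cleavage and strand separation, reported as reduction of this enzyme activity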
Description: Inhibition of NEIL1 by quantifying inhibition of NEIL1-mediated cleavage and dissociation of quenched duplex DNA oligonucleotides, measured as fluorescence at 594 nm.

[4] = target: G/T mismatch-specific thymine DNA glycosylase (Homo sapiens) (UniProt Q13569);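 further: human TDG cleavage of quenched duplex DNA oligonucleotides coupled to APE1, strand release read as fluorescence at 594 nm, inhibition of TDG activity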
Description: Inhibition of TDG by quantifying inhibition of TDG-mediated cleavage and dissociation of quenched duplex DNA oligonucleotides, measured as fluorescence at 594 nm. To generate a functional strand incision and increase turn-over this assay is coupled to APE1.

[5] = target: T2, Single-strand selective monofunctional uracil DNA glycosylase (Homo sapiens) (UniProt Q53HV7);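 further: enzymatic SMUG1 assay coupled with APE1, reading fluorescence at 594 nm released when a quenched double-stranded DNA oligonucleotide substrate is cleaved and separated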
T2 sequence (whole entry): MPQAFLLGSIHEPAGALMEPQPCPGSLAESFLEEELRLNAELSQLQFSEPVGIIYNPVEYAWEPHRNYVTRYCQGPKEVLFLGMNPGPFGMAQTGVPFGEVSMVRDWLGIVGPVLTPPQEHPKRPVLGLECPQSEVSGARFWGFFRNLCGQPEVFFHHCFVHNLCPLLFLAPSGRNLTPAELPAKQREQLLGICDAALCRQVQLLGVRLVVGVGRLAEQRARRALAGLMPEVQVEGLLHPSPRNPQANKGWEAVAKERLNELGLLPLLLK
Description: Inhibition of SMUG1 by quantifying inhibition of SMUG1-mediated cleavage and dissociation of quenched duplex DNA oligonucleotides, measured as fluorescence at 594 nm. To generate a functional strand incision and increase turn-over this assay is coupled to APE1.

[6] = target: N-glycosylase/DNA lyase (Homo sapiens) (UniProt O15527);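 further: OGG1 cleavage of a quenched duplex DNA oligonucleotide, coupled to APE1 for strand incision, read as fluorescence at 594 nm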
N-glycosylase/DNA lyase (Homo sapiens), sequence (O15527 whole entry): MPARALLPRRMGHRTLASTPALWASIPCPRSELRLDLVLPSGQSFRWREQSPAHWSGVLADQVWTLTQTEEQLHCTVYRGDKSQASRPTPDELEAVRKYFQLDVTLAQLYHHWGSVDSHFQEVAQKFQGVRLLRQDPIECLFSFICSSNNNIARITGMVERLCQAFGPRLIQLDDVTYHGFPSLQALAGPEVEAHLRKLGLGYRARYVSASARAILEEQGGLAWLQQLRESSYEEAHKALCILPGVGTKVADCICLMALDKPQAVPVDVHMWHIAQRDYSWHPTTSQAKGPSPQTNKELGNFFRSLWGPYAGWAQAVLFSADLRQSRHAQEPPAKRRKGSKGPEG
Description: Inhibition of OGG1 by quantifying inhibition of OGG1-mediated cleavage and dissociation of quenched duplex DNA oligonucleotides, measured as fluorescence at 594 nm. To generate a functional strand incision and increase turn-over this assay is coupled to APE1.

G/T mismatch-specific thymine DNA glycosylase (Homo sapiens), sequence (Q13569 whole entry): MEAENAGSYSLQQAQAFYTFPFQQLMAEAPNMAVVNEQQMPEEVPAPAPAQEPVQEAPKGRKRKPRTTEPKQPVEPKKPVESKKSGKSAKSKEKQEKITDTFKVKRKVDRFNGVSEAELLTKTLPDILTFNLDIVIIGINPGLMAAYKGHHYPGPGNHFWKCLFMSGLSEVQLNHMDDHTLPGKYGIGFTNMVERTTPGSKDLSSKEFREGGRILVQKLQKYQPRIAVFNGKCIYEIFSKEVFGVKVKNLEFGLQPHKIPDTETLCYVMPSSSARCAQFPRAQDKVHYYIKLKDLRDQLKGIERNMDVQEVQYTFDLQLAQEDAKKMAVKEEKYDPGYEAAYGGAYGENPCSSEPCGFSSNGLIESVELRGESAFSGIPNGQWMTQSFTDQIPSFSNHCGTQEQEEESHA
Endonuclease 8-like 1 (Homo sapiens), sequence (Q96FI4 whole entry): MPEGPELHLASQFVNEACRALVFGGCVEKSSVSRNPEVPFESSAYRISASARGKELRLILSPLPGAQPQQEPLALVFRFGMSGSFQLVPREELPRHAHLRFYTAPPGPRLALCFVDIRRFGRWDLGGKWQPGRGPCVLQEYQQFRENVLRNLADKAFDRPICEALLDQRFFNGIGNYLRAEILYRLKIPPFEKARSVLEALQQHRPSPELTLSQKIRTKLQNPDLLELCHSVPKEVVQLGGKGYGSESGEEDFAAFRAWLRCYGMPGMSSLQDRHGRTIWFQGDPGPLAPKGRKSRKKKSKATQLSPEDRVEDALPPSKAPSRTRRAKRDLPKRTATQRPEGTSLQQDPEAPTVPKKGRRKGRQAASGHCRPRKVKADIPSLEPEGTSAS
Uracil-DNA glycosylase (Homo sapiens), sequence (P13051 whole entry): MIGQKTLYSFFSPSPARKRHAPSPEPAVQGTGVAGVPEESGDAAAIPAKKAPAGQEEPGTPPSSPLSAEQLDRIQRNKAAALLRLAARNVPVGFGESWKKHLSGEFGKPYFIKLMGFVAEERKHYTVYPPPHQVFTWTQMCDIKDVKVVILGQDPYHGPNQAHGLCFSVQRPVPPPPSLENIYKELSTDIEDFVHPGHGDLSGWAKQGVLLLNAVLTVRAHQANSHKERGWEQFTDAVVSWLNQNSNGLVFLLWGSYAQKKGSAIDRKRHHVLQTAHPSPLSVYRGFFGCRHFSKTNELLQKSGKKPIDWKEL

With CCOc1ccc(C[C@H]2NC(=O)CCSSC[C@@H](C(=O)N3CCC[C@H]3C(=O)N[C@@H](CCCN)C(=O)NCC(N)=O)NC(=O)[C@H](CC(N)=O)NC(=O)[C@H]([C@@H](C)O)NC(=O)[C@H]([C@@H](C)CC)NC2=O)cc1 ([Mpa][dY](Et)ITNCP[Orn]G-NH2; disulfide 1-6) the inhibition [1] was -8.02%, the inhibition [2] was 9% and the inhibition [3] was 4.99%. It also gave an inhibition [4] of -5.89% and an inhibition [5] of -2.21%.

Work on O=S(=O)(c1ccccc1)c1cnc2c(N3CCNCC3)cccc2c1 yielded an inhibition [1] of -8.69%, an inhibition [2] of -5.97% and an inhibition [3] of 6.47%. The inhibition [6] was -2.8% and the inhibition [5] was -2.7%.

CC[C@H]1OC(=O)[C@H](C)[C@@H](O[C@H]2C[C@@](C)(OC)[C@@H](O)[C@H](C)O2)[C@H](C)[C@@H](O[C@@H]2O[C@H](C)C[C@H](N(C)C)[C@H]2O)[C@@]2(C)CC(C)=C(O2)[C@H](C)[C@@H](O)[C@]1(C)O showed an inhibition [2] of 4.76%, an inhibition [3] of 3.06% and an inhibition [4] of 0.145%. For the same compound, the inhibition [5] was -6.48%.

O=C(Cc1ccc(Cl)c(Cl)c1)N1CCCC[C@H]1CN1CCCC1 showed an inhibition [1] of -9.61%, an inhibition [2] of -2.48% and an inhibition [3] of -3.91%. For the same compound, the inhibition [6] was 2.1% and the inhibition [5] was -3.13%.

Cc1nc2sccn2c(=O)c1CCN1CCC(=C(c2ccc(F)cc2)c2ccc(F)cc2)CC1 gave an inhibition [2] of 7.75%, an inhibition [3] of -4.65% and an inhibition [6] of 4.32%. The inhibition [4] was 20.8% and the inhibition [5] was -6.91%.

With N#Cc1ccc2[nH]cc(CCCCN3CCN(c4ccc5oc(C(N)=O)cc5c4)CC3)c2c1 the inhibition [1] was -7.29%, the inhibition [3] was 14.2% and the inhibition [6] was -2.53%. The inhibition [4] was -5.72% and the inhibition [5] was 10.3%.

Clc1ccc(CCCOCCCN2CCCCC2)cc1 gave an inhibition [1] of -8.48%, an inhibition [2] of -5.97% and an inhibition [3] of -3.47%. The inhibition [4] was 8.64% and the inhibition [5] was -0.857%.

For CN1C2CCC1CC(OC(c1ccc(F)cc1)c1ccc(F)cc1)C2 (configuration not stated), the inhibition [1] was -4.51%, the inhibition [2] was -4.23% and the inhibition [3] was 1.28%.

Cc1ccc2c(c1)c1c(n2CCc2ccc(C)nc2)CCN(C)C1 gave an inhibition [2] of 3.01%, an inhibition [3] of -8.95% and an inhibition [4] of -5.76%. The inhibition [5] was -3.57%.

Compound Cc1c(C(=O)O)cc(-c2ccc(C3CCNCC3)cc2)c2ccc(-c3ccc(C(F)(F)F)cc3)cc12 has an inhibition [1] of 3.66%, an inhibition [2] of -4.83% and an inhibition [3] of -6.8%. The inhibition [6] was 11.4%, the inhibition [4] was 44.3% and the inhibition [5] was 4.5%.

Cc1ccc(-c2ccc3c(ccc4sc5c(c43)NCC(C)NC5=O)n2)cn1 (configuration not stated) gave an inhibition [3] of -2.5%, an inhibition [6] of -7.16% and an inhibition [4] of 25.8%. For the same compound, the inhibition [5] was 6.89%.

Work on c1cc(OCCCN2CCCCC2)ccc1CN1CCCCC1 yielded an inhibition [2] of -0.733%, an inhibition [3] of -2.58% and an inhibition [6] of -9.64%. The inhibition [4] was 13.9%.

In the case of N#Cc1cccc(C(=O)Nc2cc(-c3ccccc3)nn2-c2ccccc2)c1, the inhibition [2] is reported as 0.764%, the inhibition [3] is reported as -1.98% and the inhibition [6] is reported as -5.93%. It also gave an inhibition [4] of -2.1% and an inhibition [5] of -0.276%.

C=CC(=O)N1CCC([C@@H]2CCNc3c(C(N)=O)c(-c4ccc(Oc5ccccc5)cc4)nn32)CC1 gave an inhibition [1] of -0.527%, an inhibition [3] of -8.45% and an inhibition [6] of 6.47%. For the same compound, the inhibition [4] was 49.9% and the inhibition [5] was 20.1%.

O=C(N[C@@H]1CC[C@@H](c2cccc(F)c2F)CN(CC(F)(F)F)C1=O)N1CCC(n2c(=O)[nH]c3ncccc32)CC1 showed an inhibition [2] of 4.76%, an inhibition [3] of -5.1% and an inhibition [6] of -8.48%. For the same compound, the inhibition [4] was 0.452%.

With CC(C)COc1ccc(CNC(=O)N(Cc2ccc(F)cc2)C2CCN(C)CC2)cc1 the inhibition [2] was 8%, the inhibition [3] was 2.32% and the inhibition [6] was -7.83%. The inhibition [4] was -0.163%.

For CCCCCCCCCCCCCCCCOC[C@H](COP(=O)([O-])OCC[N+](C)(C)C)OC(C)=O, the inhibition [1] was -5.53%, the inhibition [2] was -9.72% and the inhibition [3] was -4.5%. For the same compound, the inhibition [6] was 31.6%.

CCOc1ccn(-c2ccc(F)cc2)c(=O)c1C(=O)Nc1ccc(Oc2ccnc(N)c2Cl)c(F)c1 showed an inhibition [1] of 6.57%, an inhibition [3] of 6.08% and an inhibition [6] of -7.89%. The inhibition [4] was 59.2% and the inhibition [5] was 30.4%.
